The source of these data is patent US11401286B2 (Tetra Discovery Partners, LLC, priority 2012, dated 2022).

In general, IC50 refers to the concentration needed to halve the response being measured.

Each structure is given as a SMILES string. Counter-ions that a name gives are not always drawn. Where only a bound is given, the exact number is not on record here.

Sequence of PDE4D7 (Q08499 other isoform, or with tags, fused parts or gaps): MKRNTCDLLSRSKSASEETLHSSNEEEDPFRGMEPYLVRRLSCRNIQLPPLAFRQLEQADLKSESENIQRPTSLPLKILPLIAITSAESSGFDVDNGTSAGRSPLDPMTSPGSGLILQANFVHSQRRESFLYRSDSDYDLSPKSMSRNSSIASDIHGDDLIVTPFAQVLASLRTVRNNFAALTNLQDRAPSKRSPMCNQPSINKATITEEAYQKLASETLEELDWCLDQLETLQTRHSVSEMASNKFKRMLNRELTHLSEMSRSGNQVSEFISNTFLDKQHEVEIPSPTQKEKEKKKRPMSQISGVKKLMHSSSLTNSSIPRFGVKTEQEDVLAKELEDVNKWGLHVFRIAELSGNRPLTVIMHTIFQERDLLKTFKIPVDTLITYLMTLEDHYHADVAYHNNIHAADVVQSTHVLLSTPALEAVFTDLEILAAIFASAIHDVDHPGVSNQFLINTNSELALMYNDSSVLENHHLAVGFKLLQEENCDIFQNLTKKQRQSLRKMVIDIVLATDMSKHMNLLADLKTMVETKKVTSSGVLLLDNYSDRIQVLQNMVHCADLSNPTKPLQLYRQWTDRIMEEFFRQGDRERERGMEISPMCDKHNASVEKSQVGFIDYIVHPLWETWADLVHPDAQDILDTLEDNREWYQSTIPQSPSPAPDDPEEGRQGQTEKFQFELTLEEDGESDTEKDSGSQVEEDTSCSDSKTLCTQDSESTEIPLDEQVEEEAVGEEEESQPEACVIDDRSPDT

The first experiment addresses PDE4D7 (Homo sapiens (Human), UniProt Q08499). The settings on record: read-out: PDE4D7 IC50.
Protocol: Here, a kinetic assay of cAMP hydrolysis by purified PDE4 was used, in which PDE4 activity was measured by coupling the formation of the PDE4 reaction product, 5′-adenosine monophosphate, to the oxidation of reduced nicotinamide adenine dinucleotide (NADH) by the use of three coupling enzymes (myokinase, pyruvate kinase and lactate dehydrogenase), which allows fluorescent determination of reaction rates. Assays are performed in 96-well plates in a total volume of 200 μl/well. Compounds are dissolved in dimethylsulfoxide (DMSO) and added to plates in a volume of 10 μl followed by addition of 165 μl of assay mix. Plates are pre-incubated at 25° C. for 15 min and the reactions are initiated by the addition of 25 μl of cAMP followed by thorough mixing. […] Initial rates (slopes) are determined from linear portions of the progress curves. Final concentrations of assay components are as follows: 50 mM Tris, pH 8, 10 mM MgCl2, 50 mM KCl, 2% DMSO, 5 mM tris(2-carboxyethyl)phosphine (TCEP), 0.4 mM phosphenolpyruvate (PEP), 0.01 mM NADH, 0.04 mM adenosine triphosphate (ATP), 0.004 mM cAMP, 7.5 units myokinase from yeast, 1.6 units pyruvate kinase, 2 units lactate dehydrogenase, and either 0.5 nM human PDE4D7 or 10 nM human PDE4B1. All data are percent normalized relative to controls and are presented as percent inhibition. […] Human PDE4D7 contained a mutation of serine 54 to aspartic acid to mimic activation by cAMP-dependent protein kinase A (PKA).
PDE4D7*=PDE4D7 containing a UCR1 activating mutation S54D.
For `CCc1cc(Oc2ccc(CC(N)=O)cc2)nc(-c2cccc(Cl)c2)n1` [Example 181, 2-(4-((2-(3-Chlorophenyl)-6-ethylpyrimidin-4-yl)oxy)phenyl)acetamide], the IC50 is > 1 µM.

With `CCc1cc(Oc2ccc(CCO)cc2)nc(-c2cccc(Cl)c2)n1` [Example 182, 2-(4-((2-(3-Chlorophenyl)-6-ethylpyrimidin-4-yl)oxy)phenyl)ethanol], the IC50 is < 1 µM. Same read-out and setting: as for `CCc1nc(Nc2ccc(CO)cc2)nc(-c2cccc(Cl)c2)n1` [Example 80, (4-((4-(3-Chlorophenyl)-6-ethyl-1,3,5-triazin-2-yl)amino)phenyl)methanol], the figure is < 1 µM.

Still in this experiment, the particulars now being: read-out: PDE4D7 IC50; PDE4D7 without asterisk.
As to `Cc1cccc(-c2cc(Nc3ccc(CC(N)=O)cc3)c3c(n2)CCC3)c1` [Example 159, 2-(4-((2-(m-Tolyl)-6,7-dihydro-5H-cyclopenta[b]pyridin-4-yl)amino)phenyl)acetamide hydrochloride], the IC50 was > 1 µM. Still for that read-out and setting: next, `NC(=O)Cc1ccc(Nc2cc(C(F)(F)F)nc(-c3cccc(Cl)c3)n2)cc1` [Example 220, 2-(4-((2-(3-Chlorophenyl)-6-(trifluoromethyl)pyrimidin-4-yl)amino)phenyl)acetamide]: < 1 µM.

With `NC(=O)Cc1ccc(Nc2nc(-c3cccc(Cl)c3)nc3c2CCCC3)cc1` [Example 234, 2-(4-((2-(3-Chlorophenyl)-5,6,7,8-tetrahydroquinazolin-4-yl)amino)phenyl)acetamide], the IC50 is < 1 µM. On to `OCCc1ccc(Cc2cc(C(F)(F)F)nc(OC3CCCC3)n2)cc1` [Example 202, 2-(4-((2-(Cyclopentyloxy)-6-(trifluoromethyl)pyrimidin-4-yl)methyl)phenyl)ethanol], for which the IC50 was > 1 µM.

In the case of `CCc1cc(Cc2ccc(CC(N)=O)cc2)nc(-c2cccc(Cl)c2)n1` [Example 65, 2-(4-((2-(3-Chlorophenyl)-6-ethylpyrimidin-4-yl)methyl)phenyl)acetamide], the IC50 is < 1 µM. On the same count and under the same terms, as for `CC(C)(C(N)=O)c1ccc(Cc2cc(-c3cccc(Cl)c3)nc3c2CCC3)cc1` [Example 127, 2-(4-((2-(3-Chlorophenyl)-6,7-dihydro-5H-cyclopenta[b]pyridin-4-yl)methyl)phenyl)-2-methylpropanamide hydrochloride], the figure is > 1 µM; as for `O=C(O)Cc1ccc(Cc2cc(C(F)(F)F)nc(OC3CCCC3)n2)cc1` [Example 200, 2-(4-((2-(Cyclopentyloxy)-6-(trifluoromethyl)pyrimidin-4-yl)methyl)phenyl)acetic acid], > 1 µM; as for `OCC[C@H]1CC[C@H](Nc2cc(-c3cccc(Cl)c3)nc3c2CCC3)CC1` [Example 97, Trans-2-(4-((2-(3-chlorophenyl)-6,7-dihydro-5H-cyclopenta[b]pyridin-4-yl)amino)cyclohexyl)ethanol hydrochloride], > 1 µM. Still for that read-out and setting: as for `CC(Cc1ccc(Nc2cc(-c3cccc(Cl)c3)nc3c2CCC3)cc1)(C(N)=O)C(N)=O` [Example 124, 2-(4-((2-(3-Chlorophenyl)-6,7-dihydro-5H-cyclopenta[b]pyridin-4-yl)amino)benzyl)-2-methylmalonamide hydrochloride], the figure is > 1 µM; as for `CCc1cc(Nc2ccc(C(CO)C(F)(F)F)cc2)nc(-c2cccc(Cl)c2)n1` (stereo not shown) [Example 186, 2-(4-((2-(3-Chlorophenyl)-6-ethylpyrimidin-4-yl)amino)phenyl)-3,3,3-trifluoropropan-1-ol], > 1 µM. The same measure, in the same setting: as for `NC(=O)Cc1ccc(Nc2cc(-c3ccc(Cl)cc3)nc3c2CCC3)cc1` [Example 148, 2-(4-((2-(4-Chlorophenyl)-6,7-dihydro-5H-cyclopenta[b]pyridin-4-yl)amino)phenyl)acetamide hydrochloride], the figure is > 1 µM; as for `NC(=O)Cc1ccc(C(O)c2cc(-c3cccc(Cl)c3)nc3c2CCC3)cc1` (stereo not shown) [Example 262, 2-(4-((2-(3-Chlorophenyl)-6,7-dihydro-5H-cyclopenta[b]pyridin-4-yl)(hydroxy)methyl)phenyl)acetamide hydrochloride], > 1 µM. Take `OC[C@H]1CC[C@H](Nc2cc(-c3cccc(Cl)c3)nc3c2CCC3)CC1` [Example 93, Trans-4-((2-(3-Chlorophenyl)-6,7-dihydro-5H-cyclopenta[b]pyridin-4-yl)amino)cyclohexyl-methanol hydrochloride]: the IC50 was > 1 µM. Same read-out and setting: next, `OCCCc1ccc(Nc2nc(-c3cccc(Cl)c3)nc3c2CCC3)cc1` [Example 163, 3-(4-((2-(3-Chlorophenyl)-6,7-dihydro-5H-cyclopenta[d]pyrimidin-4-yl)amino)phenyl)propan-1-ol]: < 1 µM; `NC(=O)Cc1ccc(Nc2cc(C3CC3)nc(-c3cccc(Cl)c3)n2)nc1` [Example 212, 2-(6-((2-(3-Chlorophenyl)-6-cyclopropylpyrimidin-4-yl)amino)pyridin-3-yl)acetamide]: > 1 µM. The same measure, in the same setting: next, `CCCNC(=O)Cc1ccc(Nc2nc(-c3ccccc3)nc3c2S(=O)(=O)CCC3)cc1` [Example 270, 2-(4-((5,5-dioxido-2-phenyl-7,8-dihydro-6H-thiopyrano[3,2-d]pyrimidin-4-yl)amino)phenyl)-N-propylacetamide]: < 1 µM; `CCOC(=O)Cc1ccc(Nc2cc(CC)nc(-c3cccc(Cl)c3)n2)cc1` [Example 185, Ethyl 2-(4-((2-(3-chlorophenyl)-6-ethylpyrimidin-4-yl)amino)phenyl)acetate]: > 1 µM.

In the case of `OCCc1ccc(Nc2cc(-c3ccc(F)c(Cl)c3)nc3c2CCC3)cc1` [Example 151, 2-(4-((2-(3-Chloro-4-fluorophenyl)-6,7-dihydro-5H-cyclopenta[b]pyridin-4-yl)amino)phenyl)ethanol hydrochloride], the IC50 was > 1 µM. On the same count and under the same terms, next, `Cc1ccc(C(=O)c2nc(-c3cccc(Cl)c3)nc3c2CCC3)cc1` [Example 70, (2-(3-Chlorophenyl)-6,7-dihydro-5H-cyclopenta[d]pyrimidin-4-yl)(p-tolyl)methanone]: > 1 µM; `OCCc1ccc(C(O)c2cc(-c3cccc(Cl)c3)nc3c2CCC3)cc1` (stereo not shown) [Example 263, 2-(4-((2-(3-Chlorophenyl)-6,7-dihydro-5H-cyclopenta[b]pyridin-4-yl)(hydroxy)methyl)phenyl)ethanol]: > 1 µM. Still for that read-out and setting: next, `N#CCc1ccc(Nc2nc(-c3cccc(Cl)c3)nc3c2CCC3)cc1` [Example 19, 2-[4-[[2-(3-chlorophenyl)-6,7-dihydro-5H-cyclopenta[d]pyrimidin-4-yl]amino]phenyl]acetonitrile]: > 1 µM. As for `OB1OCc2cc(Nc3nc(-c4cccc(Cl)c4)nc4c3CCC4)ccc21` [Example 294, 2-(3-Chlorophenyl)-N-(1-hydroxy-3H-2,1-benzoxaborol-5-yl)-6,7-dihydro-5H-cyclopenta[d]pyrimidin-4-amine], the IC50 is > 1 µM. Same read-out and setting: as for `CCCN(C)C(=O)Cc1ccc(Cc2cc(CC)nc(-c3cccc(Cl)c3)n2)cc1` [Example 194, 2-(4-((2-(3-Chlorophenyl)-6-ethylpyrimidin-4-yl)methyl)phenyl)-N-methyl-N-propylacetamide], the figure is < 1 µM; as for `O=C(O)Cc1ccc(Nc2nc(-c3ccc(Cl)cc3)nc(C3CC3)n2)cc1` [Example 37, 2-(4-((4-(4-chlorophenyl)-6-cyclopropyl-1,3,5-triazin-2-yl)amino)phenyl)acetic acid], > 1 µM; as for `CC(C)Oc1cc(Nc2ccc(CC(N)=O)cc2)c2c(n1)CCC2` [Example 261, 2-(4-((2-Isopropoxy-6,7-dihydro-5H-cyclopenta[b]pyridin-4-yl)amino)phenyl)acetamide hydrochloride], > 1 µM.

As for `CC(Oc1ccc(Nc2cc(-c3cccc(Cl)c3)nc3c2CCC3)cc1)C(N)=O` (stereo not shown) [Example 116, 2-(4-((2-(3-Chlorophenyl)-6,7-dihydro-5H-cyclopenta[b]pyridin-4-yl)amino)phenoxy)propanamide hydrochloride], the IC50 is > 1 µM. Same read-out and setting: next, `O=S1(=O)CCCc2nc(C3CCCC3)nc(Cc3ccc(CCO)cc3)c21` [Example 288, 2-Cyclopentyl-4-(4-(2-hydroxyethyl)benzyl)-7,8-dihydro-6H-thiopyrano[3,2-d]pyrimidine 5,5-dioxide]: < 1 µM; `NC(=O)Cc1ccc(Cc2cc(C(F)(F)F)nc(OC3CCCC3)n2)cc1` [Example 201, 2-(4-((2-(Cyclopentyloxy)-6-(trifluoromethyl)pyrimidin-4-yl)methyl)phenyl)acetamide]: > 1 µM. The same measure, in the same setting: as for `O=C(O)Cc1ccc(Nc2cc(C3CC3)nc(-c3ccc(Cl)s3)n2)cc1` [Example 297, 2-[4-[[2-(5-Chloro-2-thienyl)-6-cyclopropyl-pyrimidin-4-yl]amino]phenyl]acetic acid], the figure is > 1 µM. The same measure, in the same setting: as for `Cc1ccc(Cc2cc(-c3cccc(Cl)c3)nc3c2CCC3)cc1` [Example 289, 2-(3-Chlorophenyl)-4-(4-methylbenzyl)-6,7-dihydro-5H-cyclopenta[b]pyridine hydrochloride], the figure is > 1 µM; as for `CCc1cc(Nc2ccc(Cn3cc(Cl)cn3)cc2)nc(-c2cccc(Cl)c2)n1` [Example 188, N-(4-((4-Chloro-1H-pyrazol-1-yl)methyl)phenyl)-2-(3-chlorophenyl)-6-ethylpyrimidin-4-amine], > 1 µM. For `NC(=O)Cc1ccc(Nc2nc(C3CCCC3)nc3c2SCCC3)cc1` [Example 284, 2-(4-((2-cyclopentyl-7,8-dihydro-6H-thiopyrano[3,2-d]pyrimidin-4-yl)amino)phenyl)acetamide], the IC50 was < 1 µM. On the same count and under the same terms, next, `OCCc1cccc(Nc2cc(-c3cccc(Cl)c3)nc3c2CCC3)c1` [Example 102, 2-(3-((2-(3-Chlorophenyl)-6,7-dihydro-5H-cyclopenta[b]pyridin-4-yl)amino)phenyl)ethanol hydrochloride]: > 1 µM; `Cc1cccc(-c2cc(Nc3ccc(CCO)cc3)c3c(n2)CCC3)c1` [Example 160, 2-(4-((2-(m-Tolyl)-6,7-dihydro-5H-cyclopenta[b]pyridin-4-yl)amino)phenyl)ethanol hydrochloride]: > 1 µM.
